SMILES strings stand for the structures.

The target of one experiment is T1, Serine/threonine-protein kinase Chk2 [209-531,Q209M] (Homo sapiens, UniProt O96017, Q209M).
T1 construct: 209-531
T1 sequence (O96017 209-531 Q209M): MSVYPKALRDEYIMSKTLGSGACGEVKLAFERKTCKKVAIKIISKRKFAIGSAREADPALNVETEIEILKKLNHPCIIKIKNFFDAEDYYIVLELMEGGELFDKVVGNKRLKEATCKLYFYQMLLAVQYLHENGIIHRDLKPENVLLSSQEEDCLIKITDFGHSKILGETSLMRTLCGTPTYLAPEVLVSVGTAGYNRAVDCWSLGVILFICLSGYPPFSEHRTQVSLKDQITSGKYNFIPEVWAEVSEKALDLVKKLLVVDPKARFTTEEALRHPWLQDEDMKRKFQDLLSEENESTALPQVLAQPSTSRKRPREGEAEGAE
The experiment in a line: In Vitro Protein Kinase Assay. Particulars: pH 7.5; 30 °C. The procedure:
Recombinant Chk2 was incubated with either histone H1 (or GST-Cdc25C) in reaction buffer, and incubated at 30 deg C for indicated times. For the drug inhibition experiments, samples were coincubated with drug during the reactions. Reactions were stopped by adding sample buffer, and samples were boiled for 5 min. Reaction products were separated by 4-20% SDS-PAGE. Chk2 protein kinase activity, measured as 32P incorporation into Chk2, histone H1 (or GST-Cdc25C), was determined using a PhosphorImager (GE Healthcare, Chalfont St. Giles, Buckinghamshire, UK). Densitometry was performed using Image-Quant.
Broadly, the IC50 is the midpoint of a concentration-inhibition curve. Low values mean greater potency in that assay, high ones weaker potency in that assay. `NC1=NC(=O)C(=C2CCNC(=O)c3[nH]ccc32)N1` [B722657K110] had a half-inhibitory concentration (IC50) of 0.42 µM.

`CC(=NN=C(N)N)c1ccc(NC(=O)Nc2ccc(C(C)=NN=C(N)N)cc2)cc1` [diacetyldiphenylurea bisguanylhydrazone] gave an IC50 of 0.24 µM.

A further experiment has as its target T1, Serine/threonine-protein kinase Chk2 [209-531,Q209M]. The experiment is described as follows: IMAP High-Throughput Screening. Particulars: pH 7.2; 23 °C. On the procedure: The IMAP Screening Express Kit (Molecular Devices, Sunnyvale, CA) was used for the high-throughput screening experiments. Compounds from the Developmental Therapeutics Program (DTP) Open Repository were solubilized and diluted in DMSO and initially tested at one concentration in the assay. Active compounds were subsequently titrated at 20 2-fold dilutions. Reactions were performed using recombinant Chk2 with the indicated drug concentrations in reaction buffer in 384-well black microplate (Greiner Bio-One, Longwood, FL)] for 60 min at room temperature. IMAP binding reagent was added to each well, plates were incubated for 30 min at room temperature, and fluorescence polarization was measured using a Tecan Ultra plate reader. Each screening plate contained staurosporine as a positive control.
Regarding `CC(=NN=C(N)N)c1ccc(C(C)=NN=C(N)N)cc1` [NSC 67931], the IC50 was > 20 µM.

With `CC(C=NNC(=N)N)=NNC(=N)N` [NSC 69432 (MGBG)], the 50% inhibitory concentration (IC50) was > 20 µM.

Consider `CC(=NN=C(N)N)c1ccc(NC(=S)Nc2ccccc2)cc1` [NSC 177940], for which the 50% inhibitory concentration (IC50) was > 20 µM.

For `CC(=NN=C(N)N)c1cccc(NC(=S)Nc2cccc(C(C)=NN=C(N)N)c2)c1` [NSC 177941], the IC50 was > 20 µM.

Turning to `CC(=NN=C(N)N)c1cccc(NC(=O)Nc2cccc(C(C)=NN=C(N)N)c2)c1` [NSC 177944], the concentration for half-maximal inhibition (IC50) was > 20 µM.

Turning to `CNC(=O)Nc1ccc(C(C)=NNC(N)=S)cc1` [NSC 377844], the IC50 is > 20 µM.

Compound `CC(=NN=C(N)N)c1ccc(NC(=O)Nc2ccc(C(C)=NN=C(N)N)cc2)cc1` [diacetyldiphenylurea bisguanylhydrazone] had a half-inhibitory concentration (IC50) of 0.2 µM.

These data come from BindingDB's records for doi:10.1124/mol.107.035832 (Nih, 2007).
